Reference: patent publication US20210023223A1, “HYDROCARBON / LIPID - CAROTENOID COMPLEXES” (IP SCIENCE LIMITED, priority 2018, published 2021)

Legend:
[1] = test system: middle-aged volunteers, facial skin; experiment: Lycopene trial, facial skin surface material; assay type: in vivo, human; settings: 7 mg formulated lycopene daily, 4 weeks
Experimental: Group II—15 middle-aged (7 males and 8 females, 48-65 years old) for lycopene intervention and
Group II—participants received 7 mg formulated lycopene,
Daily dose of each carotenoid product was taken in one capsule with the main evening meal for 4 weeks (from day 1 to day 28 of the study).
For RSSC sample collection all participants of the study were requested to avoid facial hygienic manipulations for 24 hours before material collection, which was carried out in the morning. These samples were collected only before initiation of astaxanthin supplementation (day 0) and at the end of the study (day 29). RSSC sample collection and preparation was performed according to previously described procedures. Briefly, RSSC samples were collected using polyester swabs from the surface of the facial skin (the sides of the nose). During the procedure two samples were taken (one swab per side). Each collected sample was placed on the surface of a microscope slide. A second microscope slide was pressed against the surface of the first one. […] All slides with collected samples (i.e. four slides per study participant per time point) were coded to provide sample anonymity for blinded analysis. All collected samples were sent to the laboratory of Lycotec Ltd for further processing and eventual microscopic examination.
For morphological analysis of RSSC samples one slide of the first pair was stained with hematoxylin and eosin in order to identify any cells or cell remnants. The second slide was stained using Oil Red O (Lipid Stain, ab150678, Abcam, Cambridge, UK) for lipid visualization and lipid droplet size evaluation. One slide from the other pair was stained with crystal violet solution (Gram staining) to assess the level of microorganism presence. The remaining slides were kept unstained for possible future use.
The analysis of typical structural elements of the RSSC comprised lipid droplet measurements, counting characteristic lipid crystals and desquamated corneocytes, and evaluation of bacterial presence as previously described. The indicated micro objects/structures were quantified using Cell^B imaging software (Digital Imaging Solutions, Olympus, Japan). All microscopic samples were blinded before their examinations.
Smears collected from the surface of the facial skin were fixed with methanol. Permeabilised corneocytes and sebum present in the material were stained for direct immunofluorescence using fluorescein isothiocyanate-conjugated monoclonal antibody against lycopene recently generated by our group. Fluorescent staining was visualised using Nikon Eclipse 50i microscope with fluorescence attachment. The semi-quantitative analysis was based on visually assessing fluorescence levels in corneocytes and surrounding sebum in 20 random fields of view at ×200 magnification. Fluorescence intensity in the samples was classified using the following scoring system: 0—no fluorescence; 0.5—traces of fluorescence; 1—weak fluorescence; 2—moderate fluorescence; 3—strong fluorescence of some cells or areas of sebum background; 4—extremely strong fluorescence (confluent fluorescent elements within corneocytes). Fluorescence assessment in each sample was repeated blindly three times.

[2] = Size of Olive oil lipid droplets, microscopy; assay type: physicochemical; design: Olive oil lipid droplets, Droplet square: unit not given here
Experimental: For measurement of lipid droplets and fat globules and quantification of their size binocular microscope Olympus BX41 was used with Cell^B software for morphometric analysis. All parameters were collected from 10 randomly selected microscopic fields at ×1000).
When lycopene was added to olive oil, rich with monounsaturated fatty acids, it increased the size of its lipid droplets in a dose-dependent manner, and table 4.

[3] = lycopene dose 0.1 per 30 g of Olive oil
[4] = lycopene dose 0.5 per 30 g of Olive oil
[5] = lycopene dose 1.0 per 30 g of Olive oil
[6] = lycopene dose 2.0 per 30 g of Olive oil
[7] = lycopene dose 3.5 per 30 g of Olive oil
[8] = lycopene dose 7.0 per 30 g of Olive oil
[9] = lycopene dose 10.0 per 30 g of Olive oil

Olive oil lipid droplets, Droplet square [2, 3]: 27.2
Size of Olive oil lipid droplets, Mean [2, 3]: 46.24 μm
Olive oil lipid droplets, Droplet square [2, 4]: 36.36
Size of Olive oil lipid droplets, Mean [2, 4]: 40.00 μm
Olive oil lipid droplets, Droplet square [2, 5]: 10.29
Size of Olive oil lipid droplets, Mean [2, 5]: 185.13 μm
Olive oil lipid droplets, Droplet square [2, 6]: 17.39
Size of Olive oil lipid droplets, Mean [2, 6]: 260.80 μm
Olive oil lipid droplets, Droplet square [2, 7]: 24.05
Size of Olive oil lipid droplets, Mean [2, 7]: 457.00 μm
Olive oil lipid droplets, Droplet square [2, 8]: 61.31
Size of Olive oil lipid droplets, Mean [2, 8]: 490.50 μm
Olive oil lipid droplets, Droplet square [2, 9]: 36.77
Size of Olive oil lipid droplets, Mean [2, 9]: 367.70 μm
Increase in lipid droplet diameter, could reach ([2]; olive oil): 20 fold
SMILES: CC(C)=CCC/C(C)=C/C=C/C(C)=C/C=C/C(C)=C/C=C/C=C(C)/C=C/C=C(C)/C=C/C=C(\C)CCC=C(C)C [Lycopene]
Bacterial load on the surface of the skin [1]: significant reduction of the bacterial load
Lycopene presence in desquamated corneocytes [1]: significantly increased for the whole period of supplementation
Lycopene presence in sebum [1]: lycopene amount growth only during the first two weeks of supplementation
Rate of desquamation of corneocytes [1]: noticeably lower
Sebum production [1]: significant increase of the sebum production
